According to publication PMC7995547, “ω‐Imidazolyl‐alkyl derivatives as new preclinical drug candidates for treating non‐alcoholic steatohepatitis” (Physiological Reports, 2021):

Columns and labels:
Format in all cases: in vivo, Wistar rats
[1] = test system: HFD‐induced NASH rat model (liver); assay: Oxidative stress (ROS status) in the liver, HFD-induced NASH rat model; conditions: liver
Method: (§1) Studies were done using Wistar rats of female sex by the Institute of Pharmacology and Biochemistry at Minsk. The animals were 80–90 days old and weighed 180–200 g. They had free access to a liquid Lieber‐DeCarli (LDC) diet (Lieber et al., 2004) and were housed under standard conditions meaning a 12‐h light/dark cycle at 22 ± 2°C and 55 ± 5% humidity.
The rats were divided into 10 groups based on the diets and experimental substances administered (Figure 2).
(§2) Group 1 was designated as the first control group; it was fed a normal standard solid diet. Group 2, as the second control group, was fed a standard amount of fat as a part of the liquid “physiological,” non‐high fat LDC diet. All other groups received the liquid ‘disease‐causing’ LDC diet (Table 2), including a high content of unsaturated fatty acids.
(§3) Both LDC diets were in a liquid form as produced by ssniff‐Spezialdiäten GmbH, Soest (Germany). The feed was provided over the entire experimental period of 16 weeks; however, the corresponding experimental substances were only administered in the last four weeks (Figure 3).
(§4) The experimental substances I‐ol, I‐an, and UDCA were dissolved in a 0.8% aqueous HPMC gel to obtain the following concentrations: (1) I‐ol at 0.4, 4, and 40 mg/kg body weight (b.w.), (2) I‐an at 0.4, 4, and 40 mg/kg b.w., and (3) UDCA at 40 mg/kg b.w. The Group‐2 and −3 rats received only HPMC as placebo. Each test encompassed 6–8 rats that were put up in a separate cage. The rats were fed ad libitum, and their intake per cage was controlled daily. In order to ensure an exact daily reproducible dosage, the experimental substances or only HPMC was administered intragastrically via oral gavage. Basically, the drug therapy of a chronic disease is the more efficient the higher the adherence of the affected patients. This is generally higher with peroral administration than with any other form of application. At the end of the experiment, the animals were sacrificed under fasting conditions, by aorta dissection and exsanguination, after anesthetizing with an intraperitoneal injection of 5% pentobarbital solution.
The formation of ROS in the rat liver was measured using NADPH‐induced chemiluminescence as described by Müller‐Peddinghaus et al. (Muller‐Peddinghaus, 1987). Luminol and lucigenin were used for detecting the superoxide radical anion (SRA) and hydrogen peroxide. Liver pieces were homogenized in 0.1 M sodium phosphate buffer, pH 7.4; the homogenates were centrifuged at 9,000 × g at 0°C; and aliquots were used for subsequent measurements. Reduced glutathione (GSH) was estimated via a modified Ellman's method (Ellman, 1959), in which 0.2 mL of the liver homogenate supernatant was added to 1.6 mL of an EDTA/sodium phosphoric acid solution and the absorbance noted at 412 nm against blank values. GSH solution produced immediately before application served as the standard. The end products of the lipid peroxidation reaction were equivalent to the thiobarbituric acid‐reacting substances (TBARS), and their concentration was measured according to the method described by Buege et al. (Buege & Aust, 1978). Enzymatic activities of microsomal glutathione reductase (GR) and cytosolic glutathione peroxidase (GPx) were measured according to the methodology of Buko et al. (Buko et al., 2002). Catalase activity was determined according to the spectroscopic methodology described by Beers et al. (Beers & Sizer, 1952) using hydrogen peroxide as the substrate.

[2] = test system: HFD‐induced NASH rat model (liver and serum); assay: End products of fat metabolism (liver and serum lipids), NASH rat model; conditions: UDCA 40 mg/kg b.w.
Method: as §1, §2, §3, §4
(§5) The activities of the liver enzymes aspartate aminotransferase (AST), alanine aminotransferase (ALT), alkaline phosphatase (AP), and γ‐glutamyl transferase (γ‐GT) as well as bilirubin and triglyceride levels in the serum were determined as described by the instructions of BIO‐LA‐tests kit (Erba Lachema, Brno, Czech Republic).
Extraction of lipids was performed using a solvent composed of chloroform and methanol (2:1 v/v). Thin‐layer chromatography (TLC) was used to separate off neutral lipids and phospholipids. Silicagel G 60 plates (0.25 mm thick) were used. The lipids were separated by ascending chromatography in a system composed of hexane:diethylic ether:glacial acetic acid (73:25:2; v/v/v). They were visualized by iodine vapor and the spots corresponding to triglycerides and cholesterol were scraped off and eluted with methanol for spectrophotometric evaluation. Triglyceride and cholesterol levels were determined using the BIO‐LA‐test kit (Erba Lachema, Brno, Czech Republic). Phospholipid concentration was determined by measuring the levels of phosphomolybdate using an inorganic phosphate reagent containing molybdate (Findlay & Evans, 1987). VLDL level was determined by using the manganese precipitation method (Burstein & Scholnick, 1973) after partial modification (Hirano et al., 2003).

[3] = test system: HFD‐induced NASH rat model (serum); assay: Adipocytokines and glucose metabolism in serum, NASH rat model
Method: as §1, §2, §3, §4
The concentrations of adiponectin and TNFα were measured using ELISA kits sold by BioCat GmbH (Heidelberg, Germany), whereas the one for determining leptin level was procured from BioVendor Laboratory Medicine Inc. (Brno, Czech Republic). Insulin concentration was determined using the radioimmunoassay kit RIO‐insulin‐PG‐J125 (IBOCH, Minsk, Belarus). Serum glucose level was determined based on the “Accu‐Check Active blood glucose” monitoring method developed by Roche‐Diagnostics.

[4] = test system: HFD‐induced NASH rat model (serum); assay: Liver enzyme activities and bilirubin in serum, NASH rat model
Method: as §1, §2, §3, §4, §5

[5] = test system: HFD‐induced NASH rat model (liver); assay: Area of connective tissue in the liver (Mallory‐Azan staining), NASH rat model; conditions: compound overall
Method: as §1, §2, §3, §4
Liver tissue sections were subject to the Mallory‐Azan (Heidenhain Azan) staining method for visualizing the connective tissues. This method was a modification of the original Mallory staining protocol, wherein azocarmin with a mixture of aniline blue and orange G was used. In this method, the collagen tissue and basophilic granules turn blue, the muscle tissue and acidophilic granules turn orange to red, and the cell nuclei and cytoplasm turn red. Elastic fibers remain unstained; however, they might turn yellow or pink. The proportion of positively stained liver tissue to the total area of the histological slide was determined quantitatively.

[6] = test system: HFD‐induced NASH rat model (liver); assay: Liver histopathology, semi‐quantitative evaluation, NASH rat model; parameters: key to Steatosis score / Balooning score: 0, none; 1, ≤25%; 2, 26–50%; 3, ≥51–75% of liver parenchyma
Method: as §1, §2, §3, §4
Pieces of liver tissue measuring 1 × 2 × 0.5 mm were chosen randomly and fixed for a week in the mixture of 1% formaldehyde and 1% paraformaldehyde in Sorensen's phosphate buffer (pH 7.4) (Morphisto GmbH, Frankfurt/Main). After this the pieces were kept in 2.5% glutaraldehyde in same buffer, rinsed and then post‐fixed in 1% solution of osmium tetroxide on the Sorensen's phosphate buffer (pH 7.4). After fixation, the liver samples were dehydrated and embedded in the pre‐polymerized mixture of methyl methacrylate and butyl methacrylate (1:4, v/v) containing 2,4‐dichlorbenzoyl peroxide as a catalyst.
[…] A semi‐quantitative evaluation of the sections was performed according to the procedure described by Koppe et al. (Koppe et al., 2004).

[7] = average over doses (I‐ol, I‐an), UDCA 40 mg/kg b.w.
[8] = average over doses (I‐ol, I‐an)
[9] = serum, average over doses (I‐ol, I‐an), UDCA 40 mg/kg b.w.
[10] = serum, number: highest concentration (40 mg/kg b.w.), words: compound overall
[11] = 40.0 mg/kg b.w. + HFD, H.E.‐stained liver slices

C[C@H](CCC(=O)O)[C@H]1CC[C@H]2[C@@H]3[C@@H](O)C[C@@H]4C[C@H](O)CC[C@]4(C)[C@H]3CC[C@]12C [UDCA, ursodeoxycholic acid, reference compound]
Increase in GR activity compared to disease group ([1]; I‐ol, I‐an groups overall, UDCA 40 mg/kg b.w.): 24% | Decrease in SRA level compared to disease group ([1]; average over 0.4, 4, 40 mg/kg b.w. (I‐ol, I‐an), UDCA 40 mg/kg b.w., oral gavage daily, last 4 of 16 weeks HFD): 30% | Decrease in TBARS level compared to disease group [1, 7]: 27% | Reduction of the effect of HFD on the SRA level [1, 7]: 84% | Reduction of the effect of HFD on the TBARS level [1, 7]: 63% | Effect on GSH level (in words) ([1]; compound overall): overall ineffective | Decrease in hydrogen peroxide level compared to disease group ([1]; highest concentration (40 mg/kg b.w.)): no significant effect | Effect of HFD nullified, GR activity increased by (on an average) ([1]; relative to the effect of HFD): 99% | Decrease in liver triglyceride levels compared to disease group [2, 8]: 17% | Reduction of the effect of HFD on liver triglyceride levels [2, 8]: 39% | Decrease in liver phospholipid levels compared to disease group ([2]; average over doses): no therapeutic effect | Decrease in serum LDL cholesterol ([2]; average over doses): non‐significant trend toward lowering the serum LDL level | Decrease in serum triglyceride levels compared to disease group ([2]; average over doses): no therapeutic effect | Decrease in serum glucose level ([3]; 40 mg/kg b.w.): 26% | Reversal of the effect of HFD on serum glucose level ([3]; 40 mg/kg b.w.): 100% | Reduction of the effect of HFD on serum TNF‐α level ([3]; average over doses (I‐ol), UDCA 40 mg/kg b.w.): 75% | Decrease in serum TNF‐α level compared to disease group [3, 7]: 56% | Decrease in serum leptin compared to disease group [3, 7]: 21% | Increase in serum adiponectin compared to disease group [3, 7]: 42% | Reduction of the effect of HFD on serum adiponectin ([3]; average over doses (I‐ol, I‐an), UDCA 40 mg/kg b.w. (elevated the concentration by)): 52% | Reduction of the effect of HFD on serum leptin ([3]; average over doses (I‐ol, I‐an), UDCA 40 mg/kg b.w. (reduced leptin concentration)): 72% | Decrease in serum bilirubin level compared to disease group ([4]; average over doses, UDCA 40 mg/kg b.w.): no therapeutic effect | Decrease in γ‐GT enzymatic activity compared to disease group [4, 9]: 30% | Reduction of the effect of HFD on γ‐GT activity [4, 9]: 73% | Decrease in ALT enzymatic activity compared to disease group ([4]; serum, highest concentrations (40 mg/kg b.w.)): 15% | Reduction of the effect of HFD on ALT activity ([4]; serum, highest concentrations (40 mg/kg b.w.), b87: dose not stated): 50% | Decrease in AP enzymatic activity compared to disease group [4, 10]: no therapeutic effect | Decrease in AST enzymatic activity compared to disease group [4, 10]: no therapeutic effect | Effect on area of connective tissue in the liver (in words) [5]: no therapeutic effect | Balooning score [6, 11]: 0 | Inflammation score [6, 11]: 1 (1, <5 signs of inflammation) | Steatosis score [6, 11]: 0–1 | Effect on liver histology (in words) ([6]; animals with NASH (HFD)): improved liver histology
